# Results as given in patent US20240343717A1, “MICROBIOCIDAL PYRAZOLE DERIVATIVES” (SYNGENTA CROP PROTECTION AG, priority 2021, published 2024).
# Experiments:
# [1] = system: Monographella nivalis (Microdochium nivale); assay: Monographella nivalis (Microdochium nivale) / liquid culture (foot rot cereals); assay type: cell-based; details: growth inhibition photometrically 4-5 days after application, read-out: control of Monographella nivalis
# Procedure, shortened: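 Fungal conidia mixed directly into potato dextrose broth and added to test compound delivered in DMSO. Incubated at 24° C; growth inhibition read photometrically 4-5 days after application.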
# [2] = system: Mycosphaerella graminicola (Septoria tritici); assay: Mycosphaerella graminicola (Septoria tritici) / liquid culture (Septoria blotch); assay type: cell-based; details: Zymoseptoria tritici, growth inhibition photometrically 4-5 days after application, read-out: control of Mycosphaerella graminicola
# Procedure, shortened: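 Conidia suspended in potato dextrose broth and added to test compound supplied in DMSO in 96-well plates. Incubated at 24 °C, and growth inhibition read photometrically 4-5 days after application.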
# Fusarium culmorum [3] = assay: microbe, parasite or virus in culture; assay type: cell-based; details: read-out: control of Fusarium culmorum
# [4] = system: Mycosphaerella arachidis (Cercospora arachidicola); assay: Mycosphaerella arachidis (Cercospora arachidicola) / liquid culture (early leaf spot); assay type: cell-based; details: growth inhibition photometrically 4-5 days after application, read-out: control of Mycosphaerella arachidis
# Procedure, shortened: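 Spores taken straight from cryostorage are suspended in potato dextrose broth and added to test compound in DMSO. Plates are incubated at 24° C. Growth inhibition is scored photometrically 4-5 days after application.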
# [5] = system: Botryotinia fuckeliana (Botrytis cinerea); assay: Botryotinia fuckeliana (Botrytis cinerea) / liquid culture (gray mould); assay type: cell-based; details: growth inhibition photometrically 3-4 days after application, read-out: control of Botryotinia fuckeliana
# Procedure, shortened: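 Conidia suspended in Vogels broth and added to compound dispensed from DMSO. Incubated at 24°C, with growth inhibition measured photometrically 3–4 days later.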
# [6] = system: Glomerella lagenarium (Colletotrichum lagenarium); assay: Glomerella lagenarium (Colletotrichum lagenarium) / liquid culture (anthracnose); assay type: cell-based; details: Colletotrichum orbiculare, growth inhibition photometrically 3-4 days after application, read-out: control of Glomerella lagenarium
# Procedure, shortened: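 Cryo-stored conidia in potato dextrose broth were added to test compound in DMSO. Plates were incubated at 24° C, and growth inhibition was read photometrically 3-4 days after application.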
# Sclerotinia sclerotiorum = Sclerotinia sclerotiorum / liquid culture (cottony rot); assay type: cell-based; details: growth inhibition photometrically 3-4 days after application, read-out: control of Sclerotinia sclerotiorum
# Method: Example B15: Sclerotinia sclerotiorum/Liquid Culture (Cottony Rot) Mycelia fragments of a newly grown liquid culture of the fungus are directly mixed into nutrient broth (PDB potato dextrose broth). After placing a (DMSO) solution of test compound into a microtiter plate (96-well format) the nutrient broth containing the fungal material is added. The test plates are incubated at 24° C. and the inhibition of growth is determined photometrically 3-4 days after application.
# Fusarium culmorum [7] = assay: whole plant or invertebrate; assay type: in vivo; details: in Triticum aestivum, read-out: control of Fusarium culmorum
# Pyrenophora teres = Pyrenophora teres / barley / leaf disc preventative (net blotch); assay type: in vivo; details: foliar, barley leaf segments, inoculated 2 days after application
# Procedure, shortened: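 Barley cv. Hasso leaf segments on agar sprayed with formulated compound, inoculated with spores 2 days later. Incubated at 20 °C, 65% rh, 12 h light/dark; disease control versus untreated assessed 5–7 days after application.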
# Alternaria solani = Alternaria solani / tomato / leaf disc (early blight); assay type: in vivo; details: foliar, tomato leaf disks, sprayed 2 days before inoculation, compared to untreated control
# Method: Example B1: Alternaria solani/Tomato/Leaf Disc (Early Blight) Tomato leaf disks cv. Baby are placed on agar in multiwell plates (24-well format) and sprayed with the formulated test compound diluted in water. The leaf disks are inoculated with a spore suspension of the fungus 2 days after application. The inoculated leaf disks are incubated at 23° C./21° C.
# [8] = system: Phaeosphaeria nodorum (Septoria nodorum); assay: Phaeosphaeria nodorum (Septoria nodorum) / wheat / leaf disc preventative (glume blotch); assay type: in vivo; details: Parastagonospora nodorum, foliar, wheat leaf segments, inoculated 2 days after application
# Method: Example B8: Phaeosphaeria nodorum (Septoria nodorum)/Wheat/Leaf Disc Preventative (Glume Blotch) Wheat leaf segments cv. Kanzler are placed on agar in a multiwell plate (24-well format) and sprayed with the formulated test compound diluted in water. The leaf disks are inoculated with a spore suspension of the fungus 2 days after application. The inoculated test leaf disks are incubated at 20° C. and 75% rh under a light regime of 12 h light/12 h darkness in a climate cabinet and the activity of a compound is assessed as percent disease control compared to untreated when an appropriate level of disease damage appears in untreated check leaf disks (5-7 days after application).
# [9] = system: Blumeria graminis f. sp. tritici (Erysiphe graminis f. sp. tritici); assay: Blumeria graminis f. sp. tritici / wheat / leaf disc preventative (powdery mildew on wheat); assay type: in vivo; details: foliar, wheat leaf segments, inoculated 1 day after application
# Method: Example B4: Blumeria graminis f. Sp. Tritici (Erysiphe graminis f. Sp. Tritici)/Wheat/Leaf Disc Preventative (Powdery Mildew on Wheat) Wheat leaf segments cv. Kanzler are placed on agar in a multiwell plate (24-well format) and sprayed with the formulated test compound diluted in water. The leaf disks are inoculated by shaking powdery mildew infected plants above the test plates 1 day after application. The inoculated leaf disks are incubated at 20° C. and 60% rh under a light regime of 24 h darkness followed by 12 h light/12 h darkness in a climate chamber and the activity of a compound is assessed as percent disease control compared to untreated when an appropriate level of disease damage appears on untreated check leaf segments (6-8 days after application).
# [10] = system: Gibberella zeae (Fusarium graminearum); assay: whole plant or invertebrate; assay type: in vivo; details: in Triticum aestivum, read-out: control of Gibberella zeae
Structure (SMILES),inhibition of growth at 20 ppm [1] [%],melting point [°C],inhibition of growth at 20 ppm [2] [%],inhibition of growth at 20 ppm (Fusarium culmorum [3]) [%],inhibition of growth at 20 ppm [4] [%],inhibition of growth at 20 ppm [5] [%],inhibition of growth at 20 ppm [6] [%],inhibition of growth at 20 ppm (Sclerotinia sclerotiorum) [%],pest or weed control at 200 ppm (Fusarium culmorum [7]) [%],pest or weed control at 200 ppm (Pyrenophora teres) [%],pest or weed control at 200 ppm (Alternaria solani) [%],pest or weed control at 200 ppm [8] [%],pest or weed control at 200 ppm [9] [%],pest or weed control at 200 ppm [10] [%]
"Cn1cc(C(C)(CNC(=O)c2nnc(-c3ccc(F)cc3F)s2)c2cccc(C#N)n2)cn1 (stereo not drawn) [Compound P-115, N-[2-(6-cyano-2-pyridyl)-2-(1-methylpyrazol-4-yl)propyl]-5-(2,4-difluorophenyl)-1,3,4-thiadiazole-2-carboxamide]",≥ 80,169 to 170,≥ 80,≥ 80,≥ 80,≥ 80,≥ 80,,,,,,,
"Cn1ncc(C(CNC(=O)c2nnc(-c3ccc(F)cc3F)s2)c2cccc(Cl)n2)c1Cl (stereo not drawn) [Compound P-116, N-[2-(5-chloro-1-methyl-pyrazol-4-yl)-2-(6-chloro-2-pyridyl)ethyl]-5-(2,4-difluorophenyl)-1,3,4-thiadiazole-2-carboxamide]",≥ 80,150 to 151,≥ 80,≥ 80,≥ 80,≥ 80,≥ 80,,,,,,,
"Cn1cc([C@@](C)(CNC(=O)c2cc(-c3ccc(F)cc3F)on2)c2cccc(Cl)n2)cn1 [Compound P-29, N-[(2S)-2-(6-chloro-2-pyridyl)-2-(1-methylpyrazol-4-yl)propyl]-5-(2,4-difluorophenyl) isoxazole-3-carboxamide]",≥ 80,,≥ 80,≥ 80,≥ 80,≥ 80,≥ 80,≥ 80,≥ 80,≥ 80,≥ 80,≥ 80,≥ 80,
"Cc1cccc(C(C)(CNC(=O)c2nnc(-c3ccc(F)cc3F)s2)c2cnn(C)c2Cl)n1 (stereo not drawn) [Compound P-82, N-[2-(5-chloro-1-methyl-pyrazol-4-yl)-2-(6-methyl-2-pyridyl)propyl]-5-(2,4-difluorophenyl)-1,3,4-thiadiazole-2-carboxamide]",≥ 80,,≥ 80,≥ 80,≥ 80,≥ 80,≥ 80,≥ 80,,≥ 80,≥ 80,≥ 80,≥ 80,≥ 80
"Cn1cc([C@@](C)(CNC(=O)c2cc(-c3ccc(F)cc3F)on2)c2cccc(Cl)n2)cn1 [Compound P-30, N-[(2S)-2-(6-chloro-2-pyridyl)-2-(1-methylpyrazol-4-yl)propyl]-5-(2,4-difluorophenyl) isoxazole-3-carboxamide]",,,,,,,,,,,,,,≥ 80
"Cn1cc(C(C)(CNC(=O)c2cc(-c3ccc(F)cc3F)on2)c2cccc(C(F)(F)F)n2)cn1 (stereo not drawn) [Compound P-106, 5-(2,4-difluorophenyl)-N-[2-(1-methylpyrazol-4-yl)-2-[6-(trifluoromethyl)-2-pyridyl]propyl] isoxazole-3-carboxamide]",≥ 80,160 to 165,≥ 80,≥ 80,≥ 80,≥ 80,≥ 80,≥ 80,,,≥ 80,,,
"Cn1ncc(C(CNC(=O)c2cc(-c3ccc(F)cc3F)on2)c2cccc(Cl)n2)c1Cl (stereo not drawn) [Compound P-69, N-[2-(5-chloro-1-methyl-pyrazol-4-yl)-2-(6-chloro-2-pyridyl)ethyl]-5-(2,4-difluorophenyl) isoxazole-3-carboxamide]",≥ 80,113 to 115,≥ 80,,≥ 80,≥ 80,≥ 80,,,≥ 80,,≥ 80,≥ 80,
"Cn1cc(C(C)(CNC(=O)c2nnc(-c3ccc(F)cc3F)s2)c2cccc(C(F)(F)F)n2)cn1 (stereo not drawn) [Compound P-107, 5-(2,4-difluorophenyl)-N-[2-(1-methylpyrazol-4-yl)-2-[6-(trifluoromethyl)-2-pyridyl]propyl]-1,3,4-thiadiazole-2-carboxamide]",≥ 80,162 to 163,≥ 80,≥ 80,≥ 80,≥ 80,≥ 80,≥ 80,,≥ 80,≥ 80,,≥ 80,
"Cn1cc(C(C)(CNC(=O)c2cc(-c3ccc(F)cc3F)on2)c2cccc(Br)n2)cn1 (stereo not drawn) [Compound P-24, N-[2-(6-bromo-2-pyridyl)-2-(1-methylpyrazol-4-yl)propyl]-5-(2,4-difluorophenyl) isoxazole-3-carboxamide]",≥ 80,141 to 143,≥ 80,≥ 80,≥ 80,≥ 80,≥ 80,≥ 80,,≥ 80,≥ 80,≥ 80,≥ 80,≥ 80
"Cn1cc(C(C)(CNC(=O)c2cc(C3CCCC3)on2)c2cccc(Cl)n2)cn1 (stereo not drawn) [Compound P-80, N-[2-(6-chloro-2-pyridyl)-2-(1-methylpyrazol-4-yl)propyl]-5-cyclopentyl-isoxazole-3-carboxamide]",≥ 80,,≥ 80,≥ 80,≥ 80,≥ 80,≥ 80,,,≥ 80,≥ 80,,,≥ 80
"Cn1cc(C(C)(CNC(=O)c2nnc(-c3ccc(F)cc3F)s2)c2cccc(Cl)n2)cn1 (stereo not drawn) [Compound P-9, N-[2-(6-chloro-2-pyridyl)-2-(1-methylpyrazol-4-yl)propyl]-5-(2,4-difluorophenyl)-1,3,4-thiadiazole-2-carboxamide]",≥ 80,,≥ 80,≥ 80,≥ 80,≥ 80,≥ 80,≥ 80,,≥ 80,≥ 80,≥ 80,≥ 80,≥ 80
